This is an account of results in patent US20210198277A1, “AMINE-SUBSTITUTED ARYL OR HETEROARYL COMPOUNDS” (Epizyme, Inc., priority 2016, published 2021).

Like-named read-outs stand apart in the source and are kept apart here. Bounds are passed on as bounds.

The target of the assay is T1, EHMT1 (Homo sapiens, UniProt Q9H9B1).
T1 sequence (Q9H9B1 1-1298): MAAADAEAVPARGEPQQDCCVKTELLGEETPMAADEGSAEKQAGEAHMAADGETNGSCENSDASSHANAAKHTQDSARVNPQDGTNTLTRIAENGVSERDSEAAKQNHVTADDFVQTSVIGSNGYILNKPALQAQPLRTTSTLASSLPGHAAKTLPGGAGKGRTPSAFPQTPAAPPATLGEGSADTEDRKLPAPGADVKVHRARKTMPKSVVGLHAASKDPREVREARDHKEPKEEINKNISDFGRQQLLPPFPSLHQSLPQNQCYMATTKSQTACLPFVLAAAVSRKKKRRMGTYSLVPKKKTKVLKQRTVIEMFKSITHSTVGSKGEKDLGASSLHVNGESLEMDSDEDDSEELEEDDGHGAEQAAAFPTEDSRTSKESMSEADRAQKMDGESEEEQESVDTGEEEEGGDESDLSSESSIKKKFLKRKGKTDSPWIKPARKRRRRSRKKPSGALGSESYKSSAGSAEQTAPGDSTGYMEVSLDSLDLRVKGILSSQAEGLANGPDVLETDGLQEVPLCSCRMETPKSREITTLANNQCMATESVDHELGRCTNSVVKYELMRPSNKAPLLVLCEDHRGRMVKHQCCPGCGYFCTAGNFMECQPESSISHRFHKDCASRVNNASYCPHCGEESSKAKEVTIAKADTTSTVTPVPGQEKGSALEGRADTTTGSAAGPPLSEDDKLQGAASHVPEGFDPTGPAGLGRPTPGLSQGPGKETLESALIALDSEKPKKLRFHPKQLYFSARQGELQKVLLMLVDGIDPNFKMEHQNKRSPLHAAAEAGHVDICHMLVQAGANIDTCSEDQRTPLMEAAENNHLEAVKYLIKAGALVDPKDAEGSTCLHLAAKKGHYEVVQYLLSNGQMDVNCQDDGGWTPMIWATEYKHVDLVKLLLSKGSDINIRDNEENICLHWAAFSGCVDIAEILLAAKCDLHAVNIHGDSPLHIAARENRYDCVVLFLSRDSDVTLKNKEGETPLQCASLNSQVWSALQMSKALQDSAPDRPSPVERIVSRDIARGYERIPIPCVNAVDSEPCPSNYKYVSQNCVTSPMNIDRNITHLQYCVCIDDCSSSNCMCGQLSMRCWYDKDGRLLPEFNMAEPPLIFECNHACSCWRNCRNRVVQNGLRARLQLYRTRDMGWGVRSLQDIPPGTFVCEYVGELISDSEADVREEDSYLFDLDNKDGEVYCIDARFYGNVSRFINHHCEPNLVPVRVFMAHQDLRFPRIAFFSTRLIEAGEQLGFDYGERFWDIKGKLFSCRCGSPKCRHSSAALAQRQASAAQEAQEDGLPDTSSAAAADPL
The assay is described as follows: EHMT1 enzyme assay on peptide substrate (EHMT1 PEP). It counts as biochemical.

Setting [1] is: Table III, read-out: EHMT1 PEP (IC50 μM).
Where [2] appears, read: Table VI, read-out: EHMT1 PEP IC50.

One may read the IC50 as the concentration that inhibits the measured activity by half. In the case of `COc1cnc(Nc2ccnc3[nH]ccc23)cc1OCCCN1CCCC1` [Compound 335, N-(5-methoxy-4-(3-(pyrrolidin-1-yl)propoxy)pyridine-2-yl)-1H-pyrrolo[2,3-b]pyridin-4-amine], the IC50 under setting [1] lay within 0.1 to 1 µM.

As for `COc1cnc(Nc2cc(C)nc3[nH]ccc23)cc1OCCCN1CCCC1` [Compound 336, N-(5-methoxy-4-(3-(pyrrolidin-1-yl)propoxy)pyridin-2-yl)-6-methyl-1H-pyrrolo[2,3-b]pyridin-4-amine], under setting [1], the IC50 was 0.1 to 1 µM.

Consider `COc1ccc(Nc2nc(C)c(F)c(NC(C)C)n2)cc1OCCCN1CCCC1` [Compound 337], for which the IC50 under setting [1] fell in the range of 0.1 to 1 µM.

With `COc1ccc(Nc2nccc(-n3nc(C)cc3C)n2)cc1OCCCN1CCCC1` [Compound 338], the IC50 under setting [1] was greater than 10 µM.

On to `CNCc1cnc(Nc2ccc(OC)c(OCCCN3CCCC3)c2)nc1` [Compound 339], for which the IC50 under setting [1] was greater than 10 µM.

As to `COc1ccc(Nc2ccnc(NCC3CCN(C(C)=O)CC3)n2)cc1OCCCN1CCCC1` [Compound 340], under setting [1], the IC50 is 0.1 to 1 µM.

Take `COc1ccc(Nc2ccc3cnn(C)c3c2)cc1OCCCN1CCCC1` [Compound 341]: under setting [1], the 50% inhibitory concentration (IC50) is greater than 10 µM.

In the case of `COc1ccc(Nc2ccc3ncn(C)c3n2)cc1OCCCN1CCCC1` [Compound 342], the IC50 under setting [1] is greater than 10 µM.

Regarding `COc1ccc(Nc2ncc3ncn(C)c3n2)cc1OCCCN1CCCC1` [Compound 343], the IC50 under setting [1] was greater than 10 µM.

Turning to `COc1ccc(Nc2cccc3ncnn23)cc1OCCCN1CCCC1` [Compound 344], the IC50 under setting [1] is greater than 10 µM.

For the molecule `COc1ccc(Nc2ccc3nn(C)cc3c2)cc1OCCCN1CCCC1` [Compound 345], under setting [1], the IC50 is greater than 10 µM.

`COc1ccc(Nc2cccc3cn(C)nc23)cc1OCCCN1CCCC1` [Compound 346]: the IC50 under setting [1] is greater than 10 µM.

On to `COc1ccc(Nc2ccc3ncc(C)n3n2)cc1OCCCN1CCCC1` [Compound 347], for which the IC50 under setting [1] was in the range of 1 to 10 µM.

Regarding `COc1ccc(Nc2nccc(-c3cnn(C)c3)n2)cc1OCCCN1CCCC1` [Compound 348], the IC50 under setting [1] was greater than 10 µM.

Consider `COc1ccc(Nc2nccc(Nc3cccc(F)c3)n2)cc1OCCCN1CCCC1` [Compound 349], for which the IC50 under setting [1] fell in the range of 1 to 10 µM.

As to `COc1ccc(Nc2nccc(NCC3CCOCC3)n2)cc1NCCCN1CCCC1` [Compound 350], the IC50 under setting [1] fell in the range of 0.1 to 1 µM.

Turning to `COc1ccc(OCCCN2CCCC2)cc1Nc1nccc(NCC2CCOCC2)n1` [Compound 351], the IC50 under setting [1] was greater than 10 µM.

`COc1ccc(NCCCN2CCCC2)cc1Nc1nccc(NCC2CCOCC2)n1` [Compound 352]: the IC50 under setting [1] was greater than 10 µM.

For the molecule `CNc1ccnc(Nc2ccc(OC)c(OCCCN3CC[C@@H](F)C3)c2)n1` [Compound 353], under setting [1], the IC50 lay within 0.1 to 1 µM.

`CNc1ccnc(Nc2ccc(OC)c(OCCCN3CC(F)C3)c2)n1` [Compound 354]: the IC50 under setting [1] lay in the range of 0.1 to 1 µM.

Turning to `CNc1cc2nccn2c(Nc2cc(OCCCN3CCCC3)c(OC)cn2)n1` [Compound 611], the IC50 under setting [2] was 1 to 10 µM.

`CCN1CC(COc2cc(Nc3nc(C)cc4[nH]ccc34)ncc2OC)C1` [Compound 613]: the IC50 under setting [2] is less than 0.1 µM.

Consider `CNc1cc(C)nc(Nc2cc(OCCCN3CCCC3)c3nc(C)cn3c2)n1` [Compound 616], for which the IC50 under setting [2] was in the range of 0.1 to 1 µM.

As for `CNc1cc(C)nc(Nc2cc(OCCCN3CCCC3)c3nccn3c2)n1` [Compound 618], the IC50 under setting [2] lay in the range of 0.1 to 1 µM.

Regarding `COc1cc2c(C3CCN(C)CC3)cc(C#N)nc2cc1OCCCN1CCCC1` [Compound 790], the IC50 under setting [2] was less than 0.1 µM.

In the case of `CNc1cc(C)nc(Nc2cc(OCCCN3CCCC3)c3oncc3c2)n1` [Compound 793], under setting [2], the IC50 is greater than 10 µM.

Regarding `COc1ccc(Nc2nn(C)c3cnccc23)cc1OCCCN1CCCC1` [Compound 794], the IC50 under setting [2] is greater than 10 µM.

Consider `COc1cnc(Nc2nn(C)c3cnccc23)cc1OCCCN1CCCC1` [Compound 795], for which the IC50 under setting [2] is greater than 10 µM.

With `COc1ccc(Nc2cc(C)[nH]n2)cc1OCCCN1CCCC1` [Compound 796], under setting [2], the IC50 is greater than 10 µM.

Turning to `COc1ccc(Nc2cc(C)n(C)n2)cc1OCCCN1CCCC1` [Compound 797], the IC50 under setting [2] is greater than 10 µM.
